Values of other authors in patent publication US9089677B2, “Transcutaneous multimodal delivery system (TMDS)” (The Regents of the University of California, priority 2011, dated 2015).
Like-named read-outs stand apart in the source and are kept apart here.

Columns and labels:
keratinocytes = settings: cited from earlier work
fibroblasts = settings: cited from earlier work
[1] = tested on: fungal subspecies (e.g., Candida albicans or glabrata as well as Mucor and Aspergillus); settings: time kill-kinetic; cited from earlier work
[2] = tested on: keratinocyte and fibroblast; settings: 10% solution; cited from earlier work
[3] = tested on: normal rat kidney fibroblast (NRK, clone 49F); settings: NRK fibroblast proliferation; cited from earlier work
[4] = up to 3 mg/kg subcutaneously or intravenously in mice, rats, and monkey; cited from earlier work
[5] = full thickness pig burn wounds; cited from earlier work
[6] = diabetic rodent wounds; cited from earlier work

Compound: NCc1ccc(S(N)(=O)=O)cc1 [MA, mafenide acetate]
- lowest dose with reported in vitro toxicity (keratinocytes): 0.85%
- lowest dose with reported in vitro toxicity (fibroblasts): 0.1%

Compound: O=[N+]([O-])[O-].[Ag+] [silver nitrate]
- antimicrobial activity against fungal subspecies [1]: activity for only C. albicans
- keratinocyte and fibroblast toxicity [2]: keratinocyte and fibroblast toxicity

Compound: becaplermin: recombinant human PDGF (rhPDGF)-BB homodimer
- half maximal activity [3]: 0.5 ng/mL
- acute toxicity and mortality [4]: no significant acute toxicity or any mortality
- granulation tissue formation [5]: significantly increased granulation tissue formation
- reepithelialization [5]: did not promote faster reepithelialization
- granulation tissue formation [6]: significantly increased granulation tissue formation
- reepithelialization [6]: did not promote faster reepithelialization
